Laboratory results reported in PMC8162438, “Cancer cell-selective modulation of mitochondrial respiration and metabolism by potent organogold(III) dithiocarbamates” (Chemical Science, 2020).

Tested on: MDA-MB-231
Test: Seahorse XF96 mitochondria stress test (OCR), MDA-MB-231
Assay type: cell-based
Source text: With the previous biological data pointing towards metabolic changes, we sought to explore further the effect 2a had on redox metabolism. The ETC is a complicated biological system that is constantly changing in response to external stress in order to achieve redox homeostasis within the cell. With the DEG data alluding to involvement of ETC genes (Fig. 9A), we then decided to look in depth at the effect of complexes on these biological parameters. We next performed oxygen consumption rate (OCR) experiments by Seahorse 96XF to quantify the effect of 2a on mitochondrial bioenergetics or stress (MitoStress) (Fig. 9B and C).[87] A series of known inhibitors of the various parts of the ETC that allow for the measurement of specific parameters were used. […] ATP linked respiration was also calculated and found to be decreased by more than 80% at 3 μM treatment (Fig. 9F). […]
For the wells that were pre-treated with NAC, a stock solution of NAC in DMEM was added at a concentration of 10 mM for 2 h prior to the addition of 2a. […] The cells were then analyzed using FACS with the FITC channel […]
Mitochondrial Metabolism Analysis with Seahorse XF96 Analysis. […] The optimum conditions were determined to be 30,000 cells/well and an FCCP injection concentration of 0.6 µM. […]

## C[N+](C)=C1[S][Au-2]2([S]1)[c]1ccccc1Cc1cccc[n+]12.F[P-](F)(F)(F)(F)F (centres unmarked) [2a]
MDA-MB-231, 1 μM, within 50 minutes, compared to control
  Decrease of maximal OCR: more than 25%
MDA-MB-231, 3 μM, 17 minutes from injection
  Decrease of basal OCR: more than 20%
